{"source": "ChEMBL document CHEMBL1128877", "about": "“Isosinococuline, a novel antitumor morphinane alkaloid from Cocculus trilobus” (1995)", "test_system": "Mus musculus", "assay": "In vivo antitumor activity against P-388 leukemia in mice was determined at 25 mg/kg/day level", "format": "functional", "data": [{"smiles": "COC1=C2C(N)Cc3cc(OC)c(O)cc3C2C[C@H](O)[C@@H]1O", "note": "(stereo partly specified)", "values": [{"measurement": "T/C", "result": 146, "unit": "%"}]}]}
